PubChem BioAssay (NCI)
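Where inhibition never reached the appropriate level, the endpoint shown equals the highest concentration tested. Otherwise, values were interpolated linearly from a five-concentration, 48-hour dose response in 96-well plates. Definition used: TGI = concentration required for complete inhibition of growth.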

The compounds below were run on SNB-75 CNS (assay: growth of human tumour cells (NCI), 48 h).

SMILES | TGI
CCOC(=O)c1c(NNc2ccccc2)nc2ccccc2c1-c1ccccc1 | 93.2 µM

Each compound was assayed on HCC-2998 colon (assay: growth of human tumour cells (NCI), 48 h).

SMILES | TGI
COc1ccccc1N=NC(C(=O)c1ccccc1)C(=O)c1ccccc1 | 70.4 µM
CC(=O)O[C@]1(C)CCC2C(C)C(=O)OC2C2C(C)[C@@H](O)CC21 (some centres undefined) | 58 µM
CCOC(=O)/C=C1/Oc2ccccc2C1(C)O (centres undefined) | > 100 µM
Cc1ccc(-c2cc(=O)c3cc4c(cc3[nH]2)OCO4)cc1 | 5.56 µM
CCOC(=O)c1c(NNc2ccccc2)nc2ccccc2c1-c1ccccc1 | > 100 µM

Each compound was assayed on K-562 leukemia (assay: growth of human tumour cells (NCI), 48 h).

SMILES | TGI
COc1ccccc1N=NC(C(=O)c1ccccc1)C(=O)c1ccccc1 | > 100 µM
CC(=O)O[C@]1(C)CCC2C(C)C(=O)OC2C2C(C)[C@@H](O)CC21 (some centres undefined) | 54.9 µM
CCOC(=O)/C=C1/Oc2ccccc2C1(C)O (centres undefined) | > 100 µM
Cc1ccc(-c2cc(=O)c3cc4c(cc3[nH]2)OCO4)cc1 | > 100 µM
CCOC(=O)c1c(NNc2ccccc2)nc2ccccc2c1-c1ccccc1 | 77.9 µM

These compounds were tested on SK-MEL-28 melanoma (assay: growth of human tumour cells (NCI), 48 h).

SMILES | TGI
COc1ccccc1N=NC(C(=O)c1ccccc1)C(=O)c1ccccc1 | > 100 µM
CC(=O)O[C@]1(C)CCC2C(C)C(=O)OC2C2C(C)[C@@H](O)CC21 (some centres undefined) | > 100 µM
CCOC(=O)/C=C1/Oc2ccccc2C1(C)O (centres undefined) | > 100 µM
Cc1ccc(-c2cc(=O)c3cc4c(cc3[nH]2)OCO4)cc1 | > 100 µM
CCOC(=O)c1c(NNc2ccccc2)nc2ccccc2c1-c1ccccc1 | > 100 µM

The compounds below were run on NCI-H23 lung (assay: growth of human tumour cells (NCI), 48 h).

SMILES | TGI
COc1ccccc1N=NC(C(=O)c1ccccc1)C(=O)c1ccccc1 | 68.1 µM
CC(=O)O[C@]1(C)CCC2C(C)C(=O)OC2C2C(C)[C@@H](O)CC21 (some centres undefined) | > 100 µM
CCOC(=O)/C=C1/Oc2ccccc2C1(C)O (centres undefined) | > 100 µM
Cc1ccc(-c2cc(=O)c3cc4c(cc3[nH]2)OCO4)cc1 | 3.29 µM
CCOC(=O)c1c(NNc2ccccc2)nc2ccccc2c1-c1ccccc1 | 50.9 µM

Each compound was assayed on SF-539 CNS (assay: growth of human tumour cells (NCI), 48 h).

SMILES | TGI
COc1ccccc1N=NC(C(=O)c1ccccc1)C(=O)c1ccccc1 | > 100 µM
CC(=O)O[C@]1(C)CCC2C(C)C(=O)OC2C2C(C)[C@@H](O)CC21 (some centres undefined) | > 100 µM
Cc1ccc(-c2cc(=O)c3cc4c(cc3[nH]2)OCO4)cc1 | 4.54 µM
CCOC(=O)c1c(NNc2ccccc2)nc2ccccc2c1-c1ccccc1 | 74.9 µM

The compounds below were run on OVCAR-8 ovarian (assay: growth of human tumour cells (NCI), 48 h).

SMILES | TGI
COc1ccccc1N=NC(C(=O)c1ccccc1)C(=O)c1ccccc1 | > 100 µM
CC(=O)O[C@]1(C)CCC2C(C)C(=O)OC2C2C(C)[C@@H](O)CC21 (some centres undefined) | > 100 µM
CCOC(=O)/C=C1/Oc2ccccc2C1(C)O (centres undefined) | > 100 µM
Cc1ccc(-c2cc(=O)c3cc4c(cc3[nH]2)OCO4)cc1 | > 100 µM
CCOC(=O)c1c(NNc2ccccc2)nc2ccccc2c1-c1ccccc1 | 82.2 µM

What follows are compounds tested on M14 melanoma (assay: growth of human tumour cells (NCI), 48 h).

SMILES | TGI
COc1ccccc1N=NC(C(=O)c1ccccc1)C(=O)c1ccccc1 | 31.6 µM
CC(=O)O[C@]1(C)CCC2C(C)C(=O)OC2C2C(C)[C@@H](O)CC21 (some centres undefined) | 47.9 µM
CCOC(=O)/C=C1/Oc2ccccc2C1(C)O (centres undefined) | > 100 µM
Cc1ccc(-c2cc(=O)c3cc4c(cc3[nH]2)OCO4)cc1 | > 22 µM
CCOC(=O)c1c(NNc2ccccc2)nc2ccccc2c1-c1ccccc1 | 80.8 µM

What follows are compounds tested on RPMI-8226 leukemia (assay: growth of human tumour cells (NCI), 48 h).

SMILES | TGI
COc1ccccc1N=NC(C(=O)c1ccccc1)C(=O)c1ccccc1 | 58.7 µM
CC(=O)O[C@]1(C)CCC2C(C)C(=O)OC2C2C(C)[C@@H](O)CC21 (some centres undefined) | 60.1 µM
CCOC(=O)/C=C1/Oc2ccccc2C1(C)O (centres undefined) | > 100 µM
Cc1ccc(-c2cc(=O)c3cc4c(cc3[nH]2)OCO4)cc1 | > 100 µM
CCOC(=O)c1c(NNc2ccccc2)nc2ccccc2c1-c1ccccc1 | 47.3 µM

Each compound was assayed on UO-31 renal (assay: growth of human tumour cells (NCI), 48 h).

SMILES | TGI
COc1ccccc1N=NC(C(=O)c1ccccc1)C(=O)c1ccccc1 | 37.3 µM
CC(=O)O[C@]1(C)CCC2C(C)C(=O)OC2C2C(C)[C@@H](O)CC21 (some centres undefined) | > 100 µM
CCOC(=O)/C=C1/Oc2ccccc2C1(C)O (centres undefined) | > 100 µM
Cc1ccc(-c2cc(=O)c3cc4c(cc3[nH]2)OCO4)cc1 | > 100 µM
CCOC(=O)c1c(NNc2ccccc2)nc2ccccc2c1-c1ccccc1 | 66.3 µM

What follows are compounds tested on ACHN renal (assay: growth of human tumour cells (NCI), 48 h).

SMILES | TGI
COc1ccccc1N=NC(C(=O)c1ccccc1)C(=O)c1ccccc1 | 83.6 µM
CC(=O)O[C@]1(C)CCC2C(C)C(=O)OC2C2C(C)[C@@H](O)CC21 (some centres undefined) | > 100 µM
CCOC(=O)/C=C1/Oc2ccccc2C1(C)O (centres undefined) | > 100 µM
Cc1ccc(-c2cc(=O)c3cc4c(cc3[nH]2)OCO4)cc1 | > 100 µM
CCOC(=O)c1c(NNc2ccccc2)nc2ccccc2c1-c1ccccc1 | > 100 µM

Each compound was assayed on OVCAR-3 ovarian (assay: growth of human tumour cells (NCI), 48 h).

SMILES | TGI
COc1ccccc1N=NC(C(=O)c1ccccc1)C(=O)c1ccccc1 | > 100 µM
CC(=O)O[C@]1(C)CCC2C(C)C(=O)OC2C2C(C)[C@@H](O)CC21 (some centres undefined) | 47.3 µM
CCOC(=O)/C=C1/Oc2ccccc2C1(C)O (centres undefined) | > 100 µM
Cc1ccc(-c2cc(=O)c3cc4c(cc3[nH]2)OCO4)cc1 | > 100 µM
CCOC(=O)c1c(NNc2ccccc2)nc2ccccc2c1-c1ccccc1 | 67 µM

These compounds were tested on NCI-H522 lung (assay: growth of human tumour cells (NCI), 48 h).

SMILES | TGI
COc1ccccc1N=NC(C(=O)c1ccccc1)C(=O)c1ccccc1 | 47 µM
CC(=O)O[C@]1(C)CCC2C(C)C(=O)OC2C2C(C)[C@@H](O)CC21 (some centres undefined) | 34.4 µM
CCOC(=O)/C=C1/Oc2ccccc2C1(C)O (centres undefined) | > 100 µM
Cc1ccc(-c2cc(=O)c3cc4c(cc3[nH]2)OCO4)cc1 | 4.83 µM
CCOC(=O)c1c(NNc2ccccc2)nc2ccccc2c1-c1ccccc1 | 56.8 µM

The compounds below were run on CAKI-1 renal (assay: growth of human tumour cells (NCI), 48 h).

SMILES | TGI
COc1ccccc1N=NC(C(=O)c1ccccc1)C(=O)c1ccccc1 | 77.3 µM
CC(=O)O[C@]1(C)CCC2C(C)C(=O)OC2C2C(C)[C@@H](O)CC21 (some centres undefined) | > 100 µM
CCOC(=O)/C=C1/Oc2ccccc2C1(C)O (centres undefined) | > 100 µM
Cc1ccc(-c2cc(=O)c3cc4c(cc3[nH]2)OCO4)cc1 | > 100 µM
CCOC(=O)c1c(NNc2ccccc2)nc2ccccc2c1-c1ccccc1 | > 100 µM

Each compound was assayed on HT29 colon (assay: growth of human tumour cells (NCI), 48 h).

SMILES | TGI
COc1ccccc1N=NC(C(=O)c1ccccc1)C(=O)c1ccccc1 | 82.3 µM
CC(=O)O[C@]1(C)CCC2C(C)C(=O)OC2C2C(C)[C@@H](O)CC21 (some centres undefined) | > 100 µM
CCOC(=O)/C=C1/Oc2ccccc2C1(C)O (centres undefined) | > 100 µM
Cc1ccc(-c2cc(=O)c3cc4c(cc3[nH]2)OCO4)cc1 | > 100 µM
